Like-named read-outs stand apart in the source and are kept apart here.
What was measured:
[1] = tested on: HCV replicon; assay: Anti-HCV assay / replicon assay (EC50, luciferase read-out); type: cell-based, hepatitis C virus (HCV); details: for CC50/EC50: CC50/EC50 ratio (selectivity index); for EC50: human hepatoma Huh-7 cell line harbouring a HCV replicon, 3 days, luciferase luminescence, read-out: EC50
Protocol: (§1) The anti-HCV activity of the pyrido[3,2-d]pyrimidine derivatives of this invention was tested in a human hepatoma Huh-7 cell line harbouring a HCV replicon. The assay comprised the following steps:
(§2) Step 1: Compound Preparation and Serial Dilution
(§3) • 1. for water soluble pyrido[3,2-d]pyrimidine derivatives, a volume of 500 μL of solution in cell media (DMEM, 10% FBS, P/S, L-Glutamine) was prepared with a concentration being twice the concentration of the starting final serial dilution concentration. […] The rest of the plate, columns 2-12, was filled with 100 μL of cell media. The plate was then placed on a Precision 2000 Workstation to start the serial dilution. Compounds were diluted three times each step from column 1 to column 10. Column 11 was used as a blank control (no compound added). • 2. for pyrido[3,2-d]pyrimidine derivatives requiring DMSO to dissolve, serial dilution is performed in 50% DMSO in a 384-well plate. A solution containing a compound at 100-fold concentration of the starting final serial dilution concentration was prepared in 50% DMSO and added to the pre-specified wells in column 1 of a polypropylene 384-well plate. The plate was then placed on a Precision 2000 Workstation to start the serial dilution. After the serial dilution, a volume of 2 μL of the solution was transferred from the 384-well plate to a 96-well cell culture plate containing 100 μL of cell media on a Biomek FX Workstation. The DMSO concentration in the final assay condition was 0.5% after cells are added to the plate and the total volume in each well is brought to 200 μL. Step 2: to each well of the serial dilution plate prepared above, 100 μL of cell media containing 6000 suspended Huh-7 HCV replicon cells was added with a Multidrop workstation. The plates were incubated for 3 days at 37° C. with 5% CO2. Step 3: Detection: • a) for the EC50 assay, the media in a 96-well cell culture plate was aspirated with a Biotek EL405 plate-washer. A volume of 200 μL of a solution containing a 1:1 mixture of cell-lysis buffer (Promega, Luciferase Cell Culture Lysis 5× Reagent, cat. #E1531) and luciferase substrate solution (Promega, Luciferase Assay, cat. #E4550) was added to each well of the plate with Multidrop.
(§4) Results in table 7 are expressed by the following data: • the 50% effective concentration (EC50), i.e. the concentration that protects 50% of the cell monolayer from virus-induced cythopathic effect, and • the 50% cytostatic concentration (CC50), i.e. the concentration that results in 50% inhibition of cell growth. Table 7 further indicates the nature of substituents being present in positions 2, 4 and 6 of the pyrido[3,2-d]pyrimidine derivatives of the invention.

[2] = tested on: Huh-7 HCV replicon cells; assay: CC50 assay in Huh-7 HCV replicon cells (CellTiter-Glo); type: cell-based, human; details: 3 days, 50% cytostatic concentration
Protocol: as §1, §2, §3, §4

2-amino-4-(phenoxy-ethyl-piperazin-1-yl)-6-(3,4-dimethoxyphenyl)-pyrido[3,2-d]pyrimidine [Example 50]
CC50/EC50 [1]: 310
EC50 [1]: 58 nM
CC50 [2]: 18000 nM

2-amino-4-[(N-3-chloro-phenyl-carbamoyl)-piperazin-1-yl]-6-(3-fluoro-4-ethoxyphenyl)pyrido-[3,2-d]pyrimidine [Example 171]
CC50/EC50 [1]: 101
EC50 [1]: 15 nM
CC50 [2]: 1500 nM

2-amino-4-[(N-3-chloro-phenyl-carbamoyl)-piperazin-1-yl]-6-(3-methyl-4-methoxy-phenyl)pyrido-[3,2-d]pyrimidine [Example 168]
CC50/EC50 [1]: 97
EC50 [1]: 27 nM
CC50 [2]: 2600 nM

2-amino-4-[N-3-chloro-phenyl-carbamoyl)-piperazin-1-yl]-6-(3,4-(methylenedioxy)phenyl)pyrido[3,2-d]pyrimidine [Example 173]
CC50/EC50 [1]: 143
EC50 [1]: 24 nM
CC50 [2]: 3400 nM

4-[(N-4-chloro-phenylcarbamoyl)-piperazin-1-yl]-6-(3-methyl-4-methoxyphenyl)-pyrido[3,2-d]pyrimidine [Example 121]
CC50/EC50 [1]: 162
EC50 [1]: 120 nM
CC50 [2]: 19400 nM

4-ethoxy-6-(3-fluoro-4-methoxy-phenyl)-pyrido[3,2-d]pyrimidin-2-ylamine [Example 459]
CC50/EC50 [1]: 78
EC50 [1]: 320 nM
CC50 [2]: 25100 nM

4-ethoxy-6-(4-methoxy-phenyl)-pyrido[3,2-d]pyrimidin-2-ylamine [Example 461]
CC50/EC50 [1]: 93
EC50 [1]: 270 nM
CC50 [2]: 25100 nM

COc1ccc(-c2ccc3nc(C)nc(N4CCN(C(=O)Nc5cccc(C)c5)CC4)c3n2)cc1OC [Example 11]
CC50/EC50 [1]: 98
EC50 [1]: 75 nM
CC50 [2]: 7300 nM

COc1ccc(-c2ccc3nc(Cl)nc(N4CCN(C(=O)Nc5cccc(C)c5)CC4)c3n2)cc1OC [Example 14]
CC50/EC50 [1]: 167
EC50 [1]: 150 nM
CC50 [2]: 25100 nM

COc1ccc(-c2ccc3nc(OCCOc4ccccc4)nc(N4CCN(C(=O)Nc5cccc(C)c5)CC4)c3n2)cc1OC [Example 19]
CC50/EC50 [1]: 52
EC50 [1]: 480 nM
CC50 [2]: 25100 nM

COc1ccc(-c2ccc3nc(N)nc(Nc4cccc(C)c4)c3n2)cc1OC [Example 32, 2-amino-4-(3-methyl-anilino)-6-(3,4-dimethoxyphenyl)-pyrido[3,2-d]pyrimidine]
CC50/EC50 [1]: 195
EC50 ([1]; Hepatitis C virus, 72 h): 258 nM
CC50 [2]: 50100 nM

COc1ccc(-c2ccc3nc(N)nc(Nc4ccc5c(c4)OCO5)c3n2)cc1OC [Example 33, 2-amino-4-[3,4-(methylenedioxy)aniline]-6-(3,4-dimethoxyphenyl)pyrido[3,2-d]pyrimidine]
CC50/EC50 [1]: 636
EC50 [1]: 8 nM
CC50 [2]: 4800 nM

COc1ccc(-c2ccc3nc(N)nc(NCCN4CCOCC4)c3n2)cc1OC [Example 38, 2-amino-4-[4-(2-aminoethyl)morpholino]-6-(3,4-dimethoxyphenyl)-pyrido[3,2-d]pyrimidine]
CC50/EC50 [1]: 151
EC50 [1]: 47 nM
CC50 [2]: 7100 nM

COc1ccc(-c2ccc3nc(N)nc(N4CCN(c5ccccn5)CC4)c3n2)cc1OC [Example 52, 2-amino-4-(2-pyridyl-piperazin-1-yl)-6-(3,4-dimethoxyphenyl)-pyrido[3,2-d]pyrimidine]
CC50/EC50 [1]: 72
EC50 [1]: 42 nM
CC50 [2]: 3000 nM

COc1ccc(-c2ccc3nc(N)nc(N4CCN(Cc5ccc6c(c5)OCO6)CC4)c3n2)cc1OC [Example 55, 2-amino-4-(1-piperonyl-piperazin-1-yl)-6-(3,4-dimethoxyphenyl)-pyrido[3,2-d]pyrimidine]
CC50/EC50 [1]: 74
EC50 [1]: 340 nM
CC50 [2]: 25100 nM

COc1ccc(-c2ccc3nc(N)nc(N4CCN(Cc5ccccc5)CC4)c3n2)cc1OC [Example 57, 2-amino-4-(1-benzylpiperazin-1-yl)-6-(3,4-dimethoxyphenyl)-pyrido[3,2-d]pyrimidine]
CC50/EC50 [1]: 546
EC50 [1]: 45 nM
CC50 [2]: 24600 nM

COc1ccc(-c2ccc3nc(N)nc(N4CCN(C(=O)Nc5cccc(Cl)c5)CC4)c3n2)cc1OC [Example 63, 2-amino-4(N-3-chloro-phenyl-carbamoyl-piperazin-1-yl)-6-(3,4-dimethoxyphenyl)-pyrido[3,2-d]pyrimidine]
CC50/EC50 [1]: 106
EC50 [1]: 7 nM
CC50 [2]: 700 nM

COc1ccc(-c2ccc3nc(N)nc(N4CCN(C(=O)COc5ccccc5)CC4)c3n2)cc1OC [Example 65, 2-amino-4[(N-phenoxy-acetyl)-piperazin-1-yl]-6-(3,4-dimethoxyphenyl)-pyrido[3,2-d]pyrimidine]
CC50/EC50 [1]: 90
EC50 [1]: 280 nM
CC50 [2]: 25100 nM

Cc1ccc(-c2ccc3ncnc(N4CCN(C(=O)Nc5cccc(Cl)c5)CC4)c3n2)cc1C [Example 84]
CC50/EC50 [1]: 167
EC50 [1]: 130 nM
CC50 [2]: 21800 nM

O=C(Nc1cccc(Cl)c1)N1CCN(c2ncnc3ccc(-c4ccc5c(c4)OCO5)nc23)CC1 [Example 85, 4-[(N-3-chlorophenylcarbamoyl)-piperazin-1-yl]-6-(3,4-methylenedioxy)phenyl-pyrido[3,2-d]pyrimidine]
CC50/EC50 [1]: 64
EC50 [1]: 19 nM
CC50 [2]: 1200 nM

CCOc1ccc(-c2ccc3ncnc(N4CCN(C(=O)Nc5cccc(Cl)c5)CC4)c3n2)cc1Cl [Example 86]
CC50/EC50 [1]: 100
EC50 [1]: 250 nM
CC50 [2]: 25100 nM

COc1ccc(-c2ccc3nc(Nc4ccc(C)cc4)nc(N4CCN(C(=O)Nc5cccc(C)c5)CC4)c3n2)cc1OC [Example 94, 2-(p-tolylamino)-4-[(N-3-methylphenylcarbamoyl)-piperazin-1-yl]-6-(3,4-dimethoxy-phenyl)-pyrido[3,2-d]pyrimidine]
CC50/EC50 [1]: 339
EC50 [1]: 74 nM
CC50 [2]: 25100 nM

COc1cc(-c2ccc3nc(N)nc(N4CCN(C(=O)Nc5ccc(F)cc5)CC4)c3n2)ccc1OC(C)C [Example 106, 2-amino-4-[(N-4-fluoro-phenyl-carbamoyl)-piperazin-1-yl]-6-(4-isopropoxy-3-methoxy-phenyl)-pyrido[3,2-d]pyrimidine]
CC50/EC50 [1]: 102
EC50 [1]: 35 nM
CC50 [2]: 3600 nM

COc1cc(-c2ccc3ncnc(N4CCN(C(=O)Nc5cccc(Cl)c5)CC4)c3n2)ccc1OC(C)C [Example 124]
CC50/EC50 [1]: 71
EC50 [1]: 35 nM
CC50 [2]: 2500 nM

Nc1nc(N2CCOCC2)c2nc(-c3ccc4c(c3)OCO4)ccc2n1 [Example 180, 2-amino-4-morpholino-6-(3,4-(methylenedioxy)phenyl)pyrido[3,2-d]pyrimidine]
CC50/EC50 [1]: 167
EC50 [1]: 150 nM
CC50 [2]: 25100 nM

Nc1nc(N2CCN(C(=O)COc3ccc(Cl)cc3)CC2)c2nc(-c3ccc(Cl)c(Cl)c3)ccc2n1 [Example 188, 2-amino-4-[N-(4-chlorophenoxy-acetyl)-piperazin-1-yl]-6-(3,4-dichlorophenyl)-pyrido[3,2-d]pyrimidine]
CC50/EC50 [1]: 211
EC50 [1]: 58 nM
CC50 [2]: 12300 nM

Nc1nc(N2CCN(C(=O)COc3ccc(Cl)cc3)CC2)c2nc(-c3ccc4c(c3)OCCO4)ccc2n1 [Example 189, 2-amino-4-[N-(4-chlorophenoxy-acetyl)-piperazin-1-yl]-6-(1,4-benzodioxane)-pyrido[3,2-d]pyrimidine]
CC50/EC50 [1]: 50
EC50 [1]: 9 nM
CC50 [2]: 430 nM

Cc1cccc(NC(=O)N2CCN(c3nc(N)nc4ccc(-c5ccc(Cl)c(Cl)c5)nc34)CC2)c1 [Example 191, 2-amino-4-[N-(3-methyl-phenyl-carbamoyl)-piperazin-1-yl]-6-(3,4-dichlorophenyl)-pyrido[3,2-d]pyrimidine]
CC50/EC50 [1]: 132
EC50 [1]: 9 nM
CC50 [2]: 1200 nM

Cc1cccc(NC(=O)N2CCN(c3nc(N)nc4ccc(-c5ccc6c(c5)OCCO6)nc34)CC2)c1 [Example 192, 2-amino-4-[N-(3-methyl-phenyl-carbamoyl)-piperazin-1-yl]-6-(1,4-benzodioxane)-pyrido[3,2-d]pyrimidine]
CC50/EC50 [1]: 147
EC50 [1]: 5 nM
CC50 [2]: 690 nM

Source: patent US8232278B2 (Gilead Sciences, Inc., priority 2005, dated 2012)
